{"source": "patent US6716827B1", "about": "“Complexes for immobilizing isothiocyanate natural precursors in cyclodextrins, preparation and use” (Commissariat a l'Energie Atomique, priority 1998, dated 2004)", "key": {"[1]": {"assay": "Solubility in aqueous solution of benzyl isothiocyanate formed by myrosinase in the α-cyclodextrin complex, followed by NMR", "format": "physicochemical", "conditions": "complexed in α-cyclodextrin; formed by action of myrosinase on the glucosinolate complex; 50 mM deuterated phosphate buffer pH 6, 25° C.", "procedure": "In this example, the inclusion complex formed in example 1 is converted into an inclusion complex of benzyl isothiocyanate in the cyclodextrin.\nFor this purpose, myrosinase is added to the solution of the complex prepared in example 1, then hydrolysis of the glucosinolate is followed under nuclear magnetic resonance.\nThe results are given in FIGS. 4, 5 and 6 which illustrate the NMR spectra obtained at 25° C. and 500 MHz, before the addition of myrosinase (FIG. 4), 1 hour after the addition of myrosinase (FIG. 5), and 17 hours after the addition of myrosinase (FIG. 6)."}, "[2]": {"assay": "Solubility in water of benzyl isothiocyanate", "format": "physicochemical", "conditions": "free compound, oily liquid"}}, "data": [{"smiles": "S=C=NCc1ccccc1", "note": "[benzyl isothiocyanate]", "values": [{"measurement": "solubility in an aqueous solution", "setting": "[1]", "value": "soluble"}, {"measurement": "solubility in water", "setting": "[2]", "value": "insoluble in water"}]}]}
